Measured values from US5686448A (priority 1995, dated 1997).

Experiments:
RK-13 cells = conditions: 25 mg/ml, 48 hours
Vero cells = conditions: 25 mg/ml, 48 hours
Procedure: To determine the toxicity level of the drug, all three cell lines--RK-13, Vero cells, and WISH cells--were used. In the toxicity experiments, the effect of the drug on the uninfected cell for a range of periods of time was determined. Accordingly, cultures were incubated with and without the drug. The time of exposure was from one to seven hours. A comparison was then made between the drug tested cultures and the control cultures. After each period of incubation, the cells were washed and fresh media was added to the cells. The cell viability was then determined by dividing these cultures and having them grow into new cell cultures.
At the end of the incubation period, the cultures were washed twice with sterile PBS (Dulbecco). Fresh medium was added to each of the cultures. The cultures were then incubated for an additional 24 hours.
(§1) Healthy confluent monolayer cell cultures were overlaid with 1 ml of the drug and incubated for 48 hours at 37° C. and then stained. Cell cultures with maintenance media were used as controls.

[1] = tested on: Flow 1000 cells (foreskin cells); conditions: 25 mg/ml, 48 hours
Procedure: as §1

HSV-2 (333 strain) = test: HMB plaque inhibition in infected Vero cells (Exp. 1M-1P); assay type: cell-based
Procedure: In this experiment, 25 mg/ml HMB was tested on Vero cells infected with HSV-2. The virus control cultures, without HMB, had 705 plaque.
The number of plaque on the virus control was about 10 to 12 plaque.
In this experiment, 25 mg/ml, 20 mg/ml, and 15 mg/ml of HMB concentrations were tested on Vero cells infected with HSV-2. […] The experimental flasks had as many, or more, plaque as the control, with an average of 154 plaque for the control and 169 plaque for the HMB-treated flasks.

C[N+](C)(C)CCCCCC[N+](C)(C)C [HMB, hexamethonium bromide]
toxicity (RK-13 cells): slight toxicity
toxicity (Vero cells): no toxicity
toxicity [1]: no toxicity
cell layer appearance (HSV-2 (333 strain); Exp. 1M, 25 mg/ml): thin cell layer
plaque inhibition (HSV-2 (333 strain); Exp. 1N, 20 mg/ml, control about 10 to 12): complete inhibition of plaque
effect on plaque (HSV-2 (333 strain); Exp. 1O, 15 mg/ml): did not have any effect
average plaque number (HSV-2 (333 strain); Exp. 1O, 15 mg/ml, control 154): 169 plaque
plaque formation (HSV-2 (333 strain); Exp. 1O, 20 mg/ml): no plaque
toxicity to monolayer (HSV-2 (333 strain); Exp. 1O, 25 mg/ml): toxic to the monolayer
plaque formation (HSV-2 (333 strain); Exp. 1O, 25 mg/ml, most likely due to toxicity): no plaque
inhibition of in vitro replication (HSV-2 (333 strain); HMB, Example No. 1 summary): inhibit the in vitro replication of HSV-1 and HSV-2
